Test results from ChEMBL document CHEMBL2203020, “Development of Synthetic Aminopeptidase N/CD13 Inhibitors to Overcome Cancer Metastasis and Angiogenesis” (ACS Med Chem Lett, 2012).
The source made the active and inactive calls. The rule behind the calls is not given here.

How the values were obtained:
[1] = target: T1, Aminopeptidase N (Sus scrofa, UniProt P15145); assay: Inhibition of APN in porcine kidney microsome assessed as inhibition of L-Leu-p-nitroanilide substrate hydrolysis incubated for 5 mins before substrate addition by UV-Vis spectrophotometric analysis; type: microsomes
T1 sequence (P15145 whole entry): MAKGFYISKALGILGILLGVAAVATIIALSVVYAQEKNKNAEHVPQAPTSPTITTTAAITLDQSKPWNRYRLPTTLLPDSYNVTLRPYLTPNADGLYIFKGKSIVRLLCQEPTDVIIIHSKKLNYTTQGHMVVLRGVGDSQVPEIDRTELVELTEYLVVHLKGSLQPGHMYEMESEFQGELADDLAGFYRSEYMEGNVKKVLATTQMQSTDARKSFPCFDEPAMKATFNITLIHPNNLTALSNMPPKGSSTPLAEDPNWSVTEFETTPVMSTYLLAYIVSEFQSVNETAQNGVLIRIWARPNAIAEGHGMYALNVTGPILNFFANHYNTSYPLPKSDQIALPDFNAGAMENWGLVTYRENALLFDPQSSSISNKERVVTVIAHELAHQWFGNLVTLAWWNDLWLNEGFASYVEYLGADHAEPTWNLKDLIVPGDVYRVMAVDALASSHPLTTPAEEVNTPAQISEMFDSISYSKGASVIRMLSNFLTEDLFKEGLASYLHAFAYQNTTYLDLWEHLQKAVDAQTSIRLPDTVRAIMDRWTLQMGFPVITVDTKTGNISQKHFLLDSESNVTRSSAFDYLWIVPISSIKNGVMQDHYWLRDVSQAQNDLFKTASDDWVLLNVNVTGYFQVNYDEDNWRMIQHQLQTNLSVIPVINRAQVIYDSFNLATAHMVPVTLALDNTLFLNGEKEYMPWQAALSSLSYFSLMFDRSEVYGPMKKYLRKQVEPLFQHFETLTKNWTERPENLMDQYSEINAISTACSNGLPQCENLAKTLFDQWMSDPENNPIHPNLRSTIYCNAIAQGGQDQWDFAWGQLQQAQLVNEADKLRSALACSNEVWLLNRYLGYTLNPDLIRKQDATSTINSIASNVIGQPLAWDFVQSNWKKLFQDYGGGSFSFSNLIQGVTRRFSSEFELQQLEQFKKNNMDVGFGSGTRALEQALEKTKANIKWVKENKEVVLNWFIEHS

[2] = Cytotoxicity against human ES2 cells assessed as cell growth inhibition rate at 50 ug/ml after 24 hrs by MTT assay; type: cell-based; details: read-out: GI
[3] = target: 72 kDa type IV collagenase (Homo sapiens, UniProt P08253); assay: Inhibition of recombinant MMP-2 using succinylated gelatin as substrate incubated for 10 mins before addition of substrate measured after 60 mins by UV-Vis spectrophotometric analysis
Sequence of 72 kDa type IV collagenase (P08253 whole entry): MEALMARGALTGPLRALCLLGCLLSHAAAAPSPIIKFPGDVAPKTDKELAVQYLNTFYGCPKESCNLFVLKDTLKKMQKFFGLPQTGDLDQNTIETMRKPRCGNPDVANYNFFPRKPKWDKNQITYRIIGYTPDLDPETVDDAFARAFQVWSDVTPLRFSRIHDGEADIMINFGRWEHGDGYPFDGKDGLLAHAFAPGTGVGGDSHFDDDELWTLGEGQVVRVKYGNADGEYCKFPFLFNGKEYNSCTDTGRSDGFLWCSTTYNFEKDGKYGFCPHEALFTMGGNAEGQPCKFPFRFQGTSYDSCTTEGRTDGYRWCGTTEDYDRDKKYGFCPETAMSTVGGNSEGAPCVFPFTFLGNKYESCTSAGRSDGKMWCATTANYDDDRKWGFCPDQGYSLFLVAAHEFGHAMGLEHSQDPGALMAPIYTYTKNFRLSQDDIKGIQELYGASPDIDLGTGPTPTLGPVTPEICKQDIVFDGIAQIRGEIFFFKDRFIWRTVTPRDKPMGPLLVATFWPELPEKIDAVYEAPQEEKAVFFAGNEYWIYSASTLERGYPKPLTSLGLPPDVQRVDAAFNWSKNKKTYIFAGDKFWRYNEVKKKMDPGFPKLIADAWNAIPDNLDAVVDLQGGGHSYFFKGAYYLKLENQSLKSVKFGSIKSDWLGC

[4] = Cytotoxicity against human ES2 cells assessed as cell growth inhibition rate at 5 ug/ml after 24 hrs by MTT assay; type: cell-based; details: read-out: GI
[5] = target: Aminopeptidase N (Homo sapiens, UniProt P15144); assay: Inhibition of APN in human ES2 cell surface assessed as inhibition of L-Leu-p-nitroanilide substrate hydrolysis incubated for 5 mins before substrate addition by UV-Vis spectrophotometric analysis
Sequence of Aminopeptidase N (Homo sapiens, UniProt P15144) (P15144 whole entry): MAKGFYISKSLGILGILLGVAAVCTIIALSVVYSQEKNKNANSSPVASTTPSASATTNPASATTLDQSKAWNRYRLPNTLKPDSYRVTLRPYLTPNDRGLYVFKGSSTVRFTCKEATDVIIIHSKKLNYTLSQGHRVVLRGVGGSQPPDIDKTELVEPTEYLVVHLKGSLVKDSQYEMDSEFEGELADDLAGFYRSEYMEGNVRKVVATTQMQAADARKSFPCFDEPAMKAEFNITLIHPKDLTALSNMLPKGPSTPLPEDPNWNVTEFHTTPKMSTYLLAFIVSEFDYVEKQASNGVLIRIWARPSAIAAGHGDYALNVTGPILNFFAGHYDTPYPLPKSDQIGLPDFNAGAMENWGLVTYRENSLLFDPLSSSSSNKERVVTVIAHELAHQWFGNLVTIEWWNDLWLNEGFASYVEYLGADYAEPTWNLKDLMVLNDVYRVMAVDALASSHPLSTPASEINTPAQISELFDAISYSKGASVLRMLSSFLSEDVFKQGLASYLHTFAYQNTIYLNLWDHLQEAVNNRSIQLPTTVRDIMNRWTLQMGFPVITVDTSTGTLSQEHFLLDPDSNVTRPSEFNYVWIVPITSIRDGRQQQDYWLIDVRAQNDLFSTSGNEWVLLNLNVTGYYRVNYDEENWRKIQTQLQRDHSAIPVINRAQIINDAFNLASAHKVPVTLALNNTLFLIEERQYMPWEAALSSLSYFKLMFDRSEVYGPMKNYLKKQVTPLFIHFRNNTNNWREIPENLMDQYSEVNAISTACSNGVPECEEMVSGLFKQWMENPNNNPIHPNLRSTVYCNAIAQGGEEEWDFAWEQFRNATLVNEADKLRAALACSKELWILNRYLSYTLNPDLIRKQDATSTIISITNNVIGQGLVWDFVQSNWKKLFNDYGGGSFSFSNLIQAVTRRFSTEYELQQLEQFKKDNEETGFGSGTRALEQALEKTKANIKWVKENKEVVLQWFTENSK

[6] = system: B16-BL6; assay: Antimetastatic activity against mouse B16-BL6 cells xenografted in C57BL/6 mouse assessed as decrease in number of pulmonary metastatic colonies at 100 mg/kg/day, ip administered for 13 days measured on day 14; type: functional, organism-based
[7] = Cytotoxicity against mouse B16-BL6 cells assessed as cell growth inhibition after 24 hrs by MTT assay; type: cell-based
[8] = system: B16-BL6; assay: Antiangiogenic activity against mouse B16-BL6 cells xenografted in C57BL/6 mouse assessed as decrease in number of vessels oriented towards the tumor mass at 100 mg/kg/day, ip administered for 4 days measured on day 5 by dissecting microscopic analysis; type: functional, organism-based
[9] = target: T2, Aminopeptidase N (Mus musculus, UniProt P97449); assay: Inhibition of APN in mouse B16-BL6 cell surface assessed as inhibition of L-Leu-p-nitroanilide substrate hydrolysis incubated for 5 mins before substrate addition by UV-Vis spectrophotometric analysis
T2 sequence (P97449 whole entry): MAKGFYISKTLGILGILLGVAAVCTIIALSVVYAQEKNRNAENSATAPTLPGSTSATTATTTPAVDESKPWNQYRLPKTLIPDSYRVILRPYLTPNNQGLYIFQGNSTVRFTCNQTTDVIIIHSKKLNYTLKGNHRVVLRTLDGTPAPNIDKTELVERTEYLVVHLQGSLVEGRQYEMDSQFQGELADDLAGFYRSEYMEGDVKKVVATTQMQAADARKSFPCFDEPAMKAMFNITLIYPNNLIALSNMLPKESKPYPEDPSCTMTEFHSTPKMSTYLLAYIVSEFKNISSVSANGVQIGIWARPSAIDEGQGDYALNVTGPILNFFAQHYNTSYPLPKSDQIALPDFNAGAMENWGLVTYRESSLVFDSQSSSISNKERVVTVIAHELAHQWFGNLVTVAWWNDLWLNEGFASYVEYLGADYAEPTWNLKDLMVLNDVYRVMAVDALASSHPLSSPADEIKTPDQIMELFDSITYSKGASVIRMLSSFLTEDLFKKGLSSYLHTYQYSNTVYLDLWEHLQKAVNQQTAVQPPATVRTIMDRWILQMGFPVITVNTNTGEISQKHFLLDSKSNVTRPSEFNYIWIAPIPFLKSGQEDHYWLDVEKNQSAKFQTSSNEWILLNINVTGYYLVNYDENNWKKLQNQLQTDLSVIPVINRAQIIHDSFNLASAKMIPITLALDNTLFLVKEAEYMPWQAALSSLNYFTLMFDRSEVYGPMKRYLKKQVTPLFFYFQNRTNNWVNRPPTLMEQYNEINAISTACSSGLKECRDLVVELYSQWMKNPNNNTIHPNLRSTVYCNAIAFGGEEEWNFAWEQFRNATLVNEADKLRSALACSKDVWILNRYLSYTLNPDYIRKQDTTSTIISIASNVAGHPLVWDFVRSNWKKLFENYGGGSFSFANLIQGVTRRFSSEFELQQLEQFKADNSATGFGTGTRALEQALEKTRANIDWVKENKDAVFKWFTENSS

[10] = system: HUVEC; assay: Antiangiogenesis activity against HUVEC assessed as decrease in capillary tubular structure formation at 25 ug/ml after 8 hrs by microscopic analysis; type: functional, cell-based; details: Homo sapiens
[11] = system: ES2; assay: Inhibition of human ES2 cell invasion after 8 hrs by Matrigel invasion assay; type: functional, cell-based
[12] = system: ES2; assay: Inhibition of human ES2 cell migration at 150 uM by crystal violet staining based microscopic analysis; type: functional
[13] = system: ES2; assay: Inhibition of human ES2 cell invasion at 15 to 150 uM after 8 hrs by Matrigel invasion assay; type: functional, cell-based
[14] = target: T2, Aminopeptidase N; assay: Inhibition of mouse APN

| SMILES | IC50 [1] | IC50 [3] | IC50 [5] | inhibition at 24 h, 50 ug/ml [2] | inhibition at 24 h, 5 ug/ml [4] | other results |
| --- | --- | --- | --- | --- | --- | --- |
| CC(C)C[C@H](NC(=O)NCc1cccc(F)c1)C(=O)NO | 0.69 µM | > 1000 µM | 3 µM | 2.81% | < 1% |  |
| O=C(NCCCCc1ccccc1)N[C@H](C(=O)NO)c1ccccc1 | 5.5 µM |  |  |  |  |  |
| CC(C)C[C@H](NC(=O)NCc1ccc(F)cc1)C(=O)NO | 0.73 µM | > 1000 µM | 0.91 µM | 11.9% | < 1% |  |
| O=C(Nc1ccc(F)cc1)N[C@H](C(=O)NO)c1ccccc1 | 9.9 µM |  |  |  |  |  |
| O=C(NCc1ccccc1)N[C@H](C(=O)NO)c1ccccc1 | 0.98 µM |  |  |  |  |  |
| O=C(NCCCc1ccccc1)N[C@H](C(=O)NO)c1ccccc1 | 2.2 µM |  |  |  |  |  |
| COc1ccc(CNC(=O)N[C@H](C(=O)NO)c2ccccc2)cc1 | 1.03 µM |  |  |  |  |  |
| CC[C@H](C)[C@H](NC(=O)NCCCCc1ccccc1)C(=O)NO | > 10 µM |  |  |  |  |  |
| Cc1ccc(CNC(=O)N[C@H](C(=O)NO)c2ccccc2)cc1 | 1.64 µM |  |  |  |  |  |
| CC(C)C[C@H](NC(=O)[C@@H](O)[C@H](N)Cc1ccccc1)C(=O)O [UBENIMEX] |  | 276 µM |  | 2.89% | < 1% | GI50 at 24 h [7]: > 500 µM; Activity [8]: Active; IC50 [9]: 23.2 µM; Activity [10]: Active; inhibition [13]: Active; inhibition [12]: Active; Ki [14]: 3.03 µM |
| CC(C)C[C@H](NC(=O)NCc1cccc2ccccc12)C(=O)NO | 0.05 µM | 545 µM | 0.42 µM | 6.67% | < 1% | Activity [6]: Active; GI50 at 24 h [7]: > 500 µM; Activity [8]: Active; IC50 [9]: 1.82 µM; Activity [10]: Active; inhibition [11]: Dose-dependent effect; inhibition [12]: Active |
| COc1ccc(NC(=O)N[C@@H](CC(C)C)C(=O)NO)cc1 | 0.57 µM | > 1000 µM | 6.4 µM | 6.85% | < 1% |  |
| CC(C)C[C@H](NC(=O)NCCCc1ccccc1)C(=O)NO | 3.4 µM |  |  |  |  |  |
| O=C(NCc1ccc(F)cc1)N[C@H](C(=O)NO)c1ccccc1 | 5 µM |  |  |  |  |  |
| Cc1ccc(CNC(=O)N[C@@H](CC(C)C)C(=O)NO)cc1 | 0.41 µM | > 1000 µM | 1.5 µM | 1.83% | < 1% |  |
| CC(C)C[C@H](NC(=O)Nc1ccccc1)C(=O)NO | 2.7 µM |  |  |  |  |  |

The next lines start with results.

| IC50 [1] | IC50 [3] | IC50 [5] | SMILES | inhibition at 24 h, 50 ug/ml [2] | inhibition at 24 h, 5 ug/ml [4] | other results |
| --- | --- | --- | --- | --- | --- | --- |
| 2.3 µM |  |  | CC(C)C[C@H](NC(=O)NCCCCc1ccccc1)C(=O)NO |  |  |  |
| 2.5 µM |  |  | CC(C)C[C@H](NC(=O)Nc1ccc(F)cc1)C(=O)NO |  |  |  |
| 7 µM |  |  | CSCC[C@H](NC(=O)NCCCc1ccccc1)C(=O)NO |  |  |  |
| > 10 µM |  |  | CC(C)C[C@H](NC(=O)OCCCc1ccccc1)C(=O)NO |  |  |  |
| 0.83 µM | > 1000 µM | 6.9 µM | COc1ccc(CNC(=O)N[C@@H](CC(C)C)C(=O)NO)cc1 | < 1% | < 1% |  |
| 2.8 µM |  |  | O=C(NCCCCc1ccccc1)N[C@@H](Cc1ccccc1)C(=O)NO |  |  |  |
| 0.66 µM |  |  | CC(C)C[C@H](NC(=O)NCc1cccs1)C(=O)NO |  |  |  |
| 0.29 µM | > 1000 µM | 0.79 µM | COc1cccc(CNC(=O)N[C@@H](CC(C)C)C(=O)NO)c1 | < 1% | < 1% | Activity [6]: Active; GI50 at 24 h [7]: > 500 µM; Activity [8]: Active; IC50 [9]: 5.61 µM; Activity [10]: Active; inhibition [11]: Dose-dependent effect; inhibition [12]: Active |
| 2.3 µM |  |  | CC(C)C[C@H](NC(=O)NCc1ccco1)C(=O)NO |  |  |  |
| 5.9 µM |  |  | O=C(Nc1ccccc1)N[C@H](C(=O)NO)c1ccccc1 |  |  |  |
| 0.33 µM | 573 µM | 0.94 µM | Cc1ccc(NC(=O)N[C@@H](CC(C)C)C(=O)NO)cc1 | 1.78% | < 1% | inhibition [11]: Dose-dependent effect; inhibition [12]: Active |
| 0.57 µM | > 1000 µM | 1.1 µM | COc1ccccc1CNC(=O)N[C@@H](CC(C)C)C(=O)NO | 3.29% | < 1% |  |
| 2.1 µM |  |  | CC(C)C[C@H](NC(=O)Nc1ccc(-c2ccccc2)cc1)C(=O)NO |  |  |  |
| 1.9 µM |  |  | O=C(NCCc1ccccc1)N[C@H](C(=O)NO)c1ccccc1 |  |  |  |
| 0.099 µM | > 1000 µM | 0.48 µM | CC(C)C[C@H](NC(=O)Nc1cccc2ccccc12)C(=O)NO | 3.63% | < 1% | Activity [6]: Active; GI50 at 24 h [7]: > 500 µM; Activity [8]: Active; IC50 [9]: 2.26 µM; Activity [10]: Active; inhibition [11]: Dose-dependent effect; inhibition [12]: Active |
| > 10 µM |  |  | CC(C)C[C@H](NC(=O)Cc1ccccc1)C(=O)NO |  |  |  |
